What was measured:
[1] = Storage stability of reagent solution (response current of sensors made with stored vs fresh reagent solution); assay type: physicochemical; details: additive in reagent solution C composition (PQSA, FAD-GDH); additive conc. 1.0-5.0 mM
Excerpt: A sensor having the configuration illustrated in FIG. 1 was manufactured. The detailed procedure will now be described. First, by sputtering palladium, 8 nm-thick conductive layer 3 was deposited on substrate 2 which was 30 mm in length, 7 mm in width and 0.2 mm in thickness and which contained polyethylene terephthalate as its main component. Thereafter, a 0.1 mm-width non-conductive track was formed by laser ablation, to form electrodes 31 to 33. Electrode 31 was designed to function as a working electrode, electrode 32 as a counter electrode, and electrode 33 as a sensing electrode.
Using a microsyringe, 1.2 μL of each reagent solution was applied to form reagent layer 4 in a shape of 2.2 mm diameter-circular. After formation of reagent layer 4, spacer 5 (0.145 mm thick) having a cut-out with a length of 3.4 mm a width of 1.2 mm and cover 6 were sequentially attached to the substrate having the electrodes formed thereon. In this way a sensor was manufactured that has a capillary having a volume of 0.6 μL. […]
Response current values of each sensor were measured using a series of glucose solutions of known concentrations.
By adding as an additive imidazole, histamine, histidine, 2-aminoimidazole, 4,5-bis(hydroxymethyl)imidazole, 1,2,4-triazole, 3-amino-1,2,4-triazole, 4-amino-1,2,4-triazole, 3,5-diamino-1,2,4-triazole, 2-methylimidazole, or 1,2-dimethylimidazole, reagent solutions were prepared that contain the same composition as reagent solution C except the type and concentration of the additive. The concentrations of the additives are as indicated in Tables below and the accompanying drawings.
Further, sensors were manufactured using the same reagent solutions stored at 25° C. and 5% humidity for 24 hours after preparation. […]

[2] = Cyclic voltammetry of reagent solutions A and B (PQSA, FAD-GDH, with or without imidazole); assay type: physicochemical
Description: Reagent solutions A and B having the following compositions were prepared.
Additive: Imidazole (structural formula is illustrated below) (7.5 mM)
Electron acceptor: PQSA (7.5 mM)
Enzyme: FAD dependent-glucose dehydrogenase (FAD-GDH) 3.5 MU/L (liter)
Buffer solution: 100 mM sodium phosphate buffer solution (pH 7.0)
Reagent solution B has the same composition as reagent solution A except the absence of imidazole.
First, by sputtering palladium, 8 nm-thick conductive layer 3 was deposited on substrate 2 which was 30 mm in length, 7 mm in width and 0.2 mm in thickness and which contained polyethylene terephthalate as its main component. Thereafter, a 0.1 mm-width non-conductive track was formed by laser ablation, to form electrodes 31 to 33. Electrode 31 corresponds to a working electrode, and electrode 32 to a counter electrode. Spacer 5 (0.145 mm thick) having a cut-out with a length of 3.4 mm and a width of 1.2 mm and cover 6 were sequentially attached to the substrate having the electrodes formed thereon. In this way a sensor electrode was manufactured that has capillary 51 with a volume of 0.6 μL.
Cyclic voltammetry was performed for the resultant reagent solution using the aforementioned sensor electrode. As a reference electrode, a silver/silver chloride (saturated potassium chloride) electrode (hereinafter “Ag|AgCl”) was used. […]

[3] = Stability test (exposure test) of sensor at 30° C., 80% humidity; details: additive in reagent layer; additive conc. 1.0-5.0 mM
Description: Sensors were manufactured in the same manner as described in section [1-5] using the reagent solutions prepared above. The sensors manufactured were exposed to an environment of high temperature and humidity (30° C., 80% relative humidity) for 24 hours. Response current values of the pre- and post-exposed sensors were measured for a series of glucose solutions of known concentrations.
Sensors were manufactured using fresh reagent solutions having the same compositions as described above. The sensors were subjected to an exposure experiment where they were allowed to stand for 24 hours at 30° C. and 80% humidity. Response current values of non-exposed sensors (i.e., sensors stored under the ambient condition (25° C., 5% humidity) for 24 hours) and the exposed sensors were measured for a series of glucose solutions of known concentrations.

Imidazole
Reagent solution stability % change in response current value between before and after 24 hours storage at 25° C. [1]: −1%
shift of the peak oxidation potential of PQSA after storage of reagent solution ([2]; 21 hours at 25° C. and 5% relative humidity, FIG. 4): positive shift of the peak oxidation potential was limited
shift of the peak potential of PQSA on addition of additive ([2]; imidazole 7.5 mM, PQSA 7.5 mM, FAD-GDH, pH 7.0, FIG. 4 vs FIG. 5): negative shift
Sensor stability % change in response current value between before and after 24 hours exposure at 30° C. and 80% humidity [3]: −50%

From patent publication US10761045B2, “Sensor, sensor system, method of manufacturing sensor, and method of measuring concentration of target substance” (PHC Holdings Corporation, priority 2010, dated 2020)
